In ChEMBL document CHEMBL1773029, “1-Substituted 4-(3-Hydroxyphenyl)piperazines Are Pure Opioid Receptor Antagonists” (ACS Med Chem Lett, 2010):

Columns and labels:
Type in all cases: functional, cell-based
[1] = molecular target: Mu-type opioid receptor (Homo sapiens) (UniProt P35372); experiment: Antagonist activity at human mu opioid receptor expressed in CHO cells assessed as inhibition of DAMGO stimulated [35S]GTPgammaS binding
[2] = molecular target: Delta-type opioid receptor (Homo sapiens) (UniProt P41143); experiment: Antagonist activity at human delta opioid receptor expressed in CHO cells assessed as inhibition of DPDPE stimulated [35S]GTPgammaS binding
[3] = molecular target: Kappa-type opioid receptor (Homo sapiens) (UniProt P41145); experiment: Antagonist activity at human kappa opioid receptor expressed in CHO cells assessed as inhibition of U69,593 stimulated [35S]GTPgammaS binding
Chain of Kappa-type opioid receptor (Homo sapiens) (P41145 whole entry): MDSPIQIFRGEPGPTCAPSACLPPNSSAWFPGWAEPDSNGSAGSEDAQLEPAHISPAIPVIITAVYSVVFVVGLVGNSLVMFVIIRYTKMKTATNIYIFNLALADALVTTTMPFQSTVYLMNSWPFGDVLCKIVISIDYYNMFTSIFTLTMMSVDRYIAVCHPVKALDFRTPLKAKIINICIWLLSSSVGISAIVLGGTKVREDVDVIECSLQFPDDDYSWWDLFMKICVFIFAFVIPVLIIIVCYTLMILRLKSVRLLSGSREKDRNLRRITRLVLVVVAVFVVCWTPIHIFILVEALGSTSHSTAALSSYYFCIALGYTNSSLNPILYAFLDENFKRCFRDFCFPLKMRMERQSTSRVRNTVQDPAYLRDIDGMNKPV

Chain of Delta-type opioid receptor (Homo sapiens) (P41143 whole entry): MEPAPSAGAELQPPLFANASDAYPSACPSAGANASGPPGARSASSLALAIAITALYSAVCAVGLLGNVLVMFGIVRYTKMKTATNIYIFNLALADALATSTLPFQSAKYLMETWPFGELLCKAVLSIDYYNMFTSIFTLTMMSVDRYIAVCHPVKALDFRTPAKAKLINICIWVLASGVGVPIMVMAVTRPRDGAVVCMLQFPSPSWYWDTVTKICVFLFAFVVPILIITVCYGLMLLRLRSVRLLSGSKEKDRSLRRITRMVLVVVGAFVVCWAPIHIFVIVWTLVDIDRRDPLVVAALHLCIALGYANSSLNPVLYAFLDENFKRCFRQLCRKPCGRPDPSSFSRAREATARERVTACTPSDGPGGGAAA
Chain of Mu-type opioid receptor (Homo sapiens) (P35372 whole entry): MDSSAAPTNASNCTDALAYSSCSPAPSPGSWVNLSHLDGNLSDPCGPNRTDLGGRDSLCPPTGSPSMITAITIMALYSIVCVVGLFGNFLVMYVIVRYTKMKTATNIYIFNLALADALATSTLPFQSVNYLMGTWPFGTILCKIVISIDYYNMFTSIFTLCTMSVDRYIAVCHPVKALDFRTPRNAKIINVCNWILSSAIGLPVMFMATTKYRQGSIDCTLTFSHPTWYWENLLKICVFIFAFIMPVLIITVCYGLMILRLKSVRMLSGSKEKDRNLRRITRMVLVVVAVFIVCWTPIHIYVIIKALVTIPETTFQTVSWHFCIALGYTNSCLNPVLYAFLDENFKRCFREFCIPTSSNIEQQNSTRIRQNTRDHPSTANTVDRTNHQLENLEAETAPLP

With `C[C@H]1CN(C)CCN1c1cccc(O)c1` the Ke [1] was 508 nM, the Ke [2] was over 10000 nM and the Ke [3] was 194 nM.
With `C[C@H]1CN(c2cccc(O)c2)[C@@H](C)CN1CCCc1ccccc1` the Ke [1] was 17.9 nM, the Ke [2] was 23.4 nM and the Ke [3] was 19.5 nM.
`C[C@H]1CN(C)CC[C@@]1(C)c1cccc(O)c1` (relative stereo) was tested, and the Ke [1] was 29.3 nM.
`Oc1cccc(N2CCN(CCCc3ccccc3)CC2)c1` gave a Ke [1] of 8.47 nM, a Ke [2] of 34.3 nM and a Ke [3] of 36.8 nM.
`C[C@H]1CN(CCCc2ccccc2)C[C@H](C)N1c1cccc(O)c1` was tested, and the Ke [1] was 1650 nM, the Ke [2] was 9000 nM and the Ke [3] was 123 nM.
`C[C@@H]1CN(c2cccc(O)c2)[C@@H](C)CN1CCCc1ccccc1` was tested, and the Ke [1] was 6.14 nM, the Ke [2] was 55.3 nM and the Ke [3] was 4.25 nM.
`C[C@H]1CN(CCCc2ccccc2)CC[C@@]1(C)c1cccc(O)c1` gave a Ke [1] of 0.1 nM, a Ke [2] of 0.9 nM and a Ke [3] of 0.88 nM.
For `C[C@H]1CN(CCCc2ccccc2)CCN1c1cccc(O)c1`, the Ke [1] was 0.88 nM, the Ke [2] was 13.4 nM and the Ke [3] was 4.09 nM.
Work on `C[C@@H]1CN(CCCc2ccccc2)[C@@H](C)CN1c1cccc(O)c1` yielded a Ke [1] of 18 nM, a Ke [2] of 180 nM and a Ke [3] of 22.9 nM.
`C[C@@H]1CN(CCCc2ccccc2)CCN1c1cccc(O)c1` gave a Ke [1] of 1.01 nM, a Ke [2] of 6.99 nM and a Ke [3] of 1.57 nM.
